Patent publication US6737383B1, “Herbicidal oxadiazolidines” (priority 1999, dated 2004)

Assays:
[1] = system: blackgrass; assay: Test B pre/postemergence blackgrass; format: in vivo, Alopecurus myosuroides
Summary of the method: (§1)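 Response is a visual 0-to-10 score relative to untreated plants, where 0 means no effect and 10 means complete control, taken twelve to sixteen days after application. Treatments went onto soil at planting and onto foliage of 1- to 4-leaf plants, using a surfactant-containing non-phytotoxic solvent.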

[2] = system: cocklebur; assay: Test B pre/postemergence cocklebur; format: in vivo, Xanthium strumarium
Summary of the method: as §1

[3] = system: corn; assay: Test B pre/postemergence corn; format: in vivo, Zea mays
Summary of the method: as §1

[4] = system: crabgrass; assay: Test B pre/postemergence crabgrass; format: in vivo, Digitaria sanguinalis
Summary of the method: as §1

[5] = system: giant foxtail; assay: Test B pre/postemergence giant foxtail; format: in vivo, Setaria faberii
Summary of the method: as §1

[6] = system: morningglory; assay: Test B pre/postemergence morningglory; format: in vivo, Ipomoea hederacea
Summary of the method: as §1

[7] = system: pigweed; assay: Test B pre/postemergence pigweed; format: in vivo, Amaranthus retroflexus
Summary of the method: as §1

[8] = system: rape; assay: Test B pre/postemergence rape; format: in vivo, Brassica napus
Summary of the method: as §1

[9] = system: soybean; assay: Test B pre/postemergence soybean; format: in vivo, Glycine max
Summary of the method: as §1

[10] = system: sugar beet; assay: Test B pre/postemergence sugar beet; format: in vivo, Beta vulgaris
Summary of the method: as §1

[11] = system: velvetleaf; assay: Test B pre/postemergence velvetleaf; format: in vivo, Abutilon theophrasti
Summary of the method: as §1

[12] = system: wheat; assay: Test B pre/postemergence wheat; format: in vivo, Triticum aestivum
Summary of the method: as §1

[13] = system: purple nutsedge; assay: Test B pre/postemergence purple nutsedge; format: in vivo, Cyperus rotundus
Summary of the method: as §1

[14] = system: rice; assay: Test B flood test rice; format: in vivo, Oryza sativa
Summary of the method: (§2)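 Flood test on plants grown to the 2-leaf stage; treated plants kept in greenhouse twelve to sixteen days, then visually rated against controls on a 0 (no effect) to 10 (complete control) scale.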

[15] = system: smallflower flatsedge; assay: Test B flood test smallflower flatsedge; format: in vivo, Cyperus difformis
Summary of the method: as §2

[16] = system: duck salad; assay: Test B flood test duck salad; format: in vivo, Heteranthera limosa
Summary of the method: as §2

[17] = Preemergence, Rate 62 g/ha, scale of 0 to 10 where 0 is no effect and 10 is complete control
[18] = Preemergence, Rate 250 g/ha, scale of 0 to 10 where 0 is no effect and 10 is complete control
[19] = Preemergence, Rate 500 g/ha, scale of 0 to 10 where 0 is no effect and 10 is complete control
[20] = Rate 62 g/ha, Postemergence, scale 0 to 10 (0 no effect, 10 complete control)
[21] = Rate 125 g/ha, Postemergence, scale of 0 to 10 where 0 is no effect and 10 is complete control
[22] = Rate 250 g/ha, Postemergence, scale of 0 to 10 where 0 is no effect and 10 is complete control
[23] = Rate 500 g/ha, Postemergence, scale 0 to 10, 0 no effect, 10 complete control
[24] = Rate 62 g/ha, headed Pre-emergence (flood test species), scale 0 to 10 (0 no effect, 10 complete control)
[25] = Rate 125 g/ha, Pre-emergence, flood test species, scale 0 to 10 where 0 is no effect and 10 is complete control
[26] = Rate 250 g/ha, Pre-emergence, flood-test species, scale 0 to 10, 0 is no effect, 10 is complete control
[27] = Rate 500 g/ha, Pre-emergence, flood test species, scale 0 to 10 (0 no effect, 10 complete control)

CSCCn1c(=O)on(C(=O)N(c2ccc(F)cc2)C(C)C)c1=O [Compound 314]
3: Crabgrass plant response rating (0 to 10 scale) ([4]; Preemergence, Rate 125 g/ha) | Giant foxtail plant response rating [5, 17] | Plant response rating, Giant foxtail [5, 22] | Plant response rating, Morningglory [6, 22] | Rape plant response rating [8, 18] | Soybean plant response rating [9, 21] | Velvetleaf plant response rating [11, 18] | Wheat plant response rating [12, 19] | Plant response rating, Wheat [12, 22]
6: Giant foxtail plant response rating (0 to 10 scale) ([5]; Preemergence, Rate 125 g/ha) | Sugarbeets plant response rating [10, 19]
0: Cocklebur plant response rating [2, 17] | Cocklebur plant response rating (0 to 10 scale) ([2]; Preemergence, Rate 125 g/ha) | Cocklebur plant response rating [2, 18] | Cocklebur plant response rating [2, 19] | Cocklebur plant response rating [2, 20] | Corn plant response rating [3, 17] | Corn plant response rating (0 to 10 scale) ([3]; Preemergence, Rate 125 g/ha) | Corn plant response rating [3, 18] | Corn plant response rating [3, 19] | Corn plant response rating [3, 20] | Corn plant response rating [3, 21] | Plant response rating, Corn [3, 22] | Corn plant response rating [3, 23] | Crabgrass plant response rating [4, 20] | Crabgrass plant response rating [4, 21] | Giant foxtail plant response rating [5, 20] | Giant foxtail plant response rating [5, 21] | Morningglory plant response rating [6, 17] | Morningglory plant response rating (0 to 10 scale) ([6]; Preemergence, Rate 125 g/ha) | Morningglory plant response rating [6, 18] | Morningglory plant response rating [6, 19] | Redroot pigweed plant response rating [7, 17] | Redroot pigweed plant response rating [7, 20] | Redroot pigweed plant response rating [7, 21] | Plant response rating, Redroot pigweed [7, 22] | Rape plant response rating [8, 17] | Rape plant response rating [8, 20] | Rape plant response rating [8, 21] | Plant response rating, Rape [8, 22] | Soybean plant response rating [9, 17] | Soybean plant response rating (0 to 10 scale) ([9]; Preemergence, Rate 125 g/ha) | Soybean plant response rating [9, 18] | Soybean plant response rating [9, 19] | Sugarbeets plant response rating [10, 17] | Sugarbeets plant response rating [10, 20] | Sugarbeets plant response rating [10, 21] | Plant response rating, Sugarbeets [10, 22] | Velvetleaf plant response rating [11, 17] | Velvetleaf plant response rating (0 to 10 scale) ([11]; Preemergence, Rate 125 g/ha) | Velvetleaf plant response rating [11, 20] | Velvetleaf plant response rating [11, 21] | Plant response rating, Velvetleaf [11, 22] | Wheat plant response rating [12, 17] | Wheat plant response rating (0 to 10 scale) ([12]; Preemergence, Rate 125 g/ha) | Wheat plant response rating [12, 18] | Wheat plant response rating [12, 20] | Wheat plant response rating [12, 21] | Nutsedge plant response rating [13, 17] | Nutsedge plant response rating [13, 19] | Nutsedge plant response rating [13, 20] | Nutsedge plant response rating [13, 21] | Plant response rating, Nutsedge [13, 22] | Rice plant response rating [14, 24] | Rice plant response rating [14, 25] | Rice plant response rating [14, 26] | Rice plant response rating [14, 27] | S. Flatsedge plant response rating [15, 24] | S. Flatsedge plant response rating [15, 25] | S. Flatsedge plant response rating [15, 26] | S. Flatsedge plant response rating [15, 27] | Ducksalad plant response rating [16, 24] | Ducksalad plant response rating [16, 25] | Ducksalad plant response rating [16, 26] | Ducksalad plant response rating [16, 27]
4: Blackgrass plant response rating [1, 21] | Plant response rating, Crabgrass [4, 22] | Plant response rating, Soybean [9, 22]
9: Redroot pigweed plant response rating [7, 19]
8: Crabgrass plant response rating [4, 19]
1: Plant response rating, Cocklebur [2, 22] | Cocklebur plant response rating [2, 23] | Crabgrass plant response rating [4, 17]
10: Blackgrass plant response rating [1, 18] | Blackgrass plant response rating [1, 19] | Giant foxtail plant response rating [5, 19]
2: Blackgrass plant response rating [1, 20] | Morningglory plant response rating [6, 20] | Morningglory plant response rating [6, 21] | Redroot pigweed plant response rating (0 to 10 scale) ([7]; Preemergence, Rate 125 g/ha) | Redroot pigweed plant response rating [7, 18] | Soybean plant response rating [9, 20] | Sugarbeets plant response rating (0 to 10 scale) ([10]; Preemergence, Rate 125 g/ha) | Sugarbeets plant response rating [10, 18]
7: Blackgrass plant response rating (0 to 10 scale) ([1]; Preemergence, Rate 125 g/ha) | Crabgrass plant response rating [4, 18] | Giant foxtail plant response rating [5, 18] | Rape plant response rating [8, 19]
5: Blackgrass plant response rating [1, 17] | Plant response rating, Blackgrass [1, 22] | Blackgrass plant response rating [1, 23] | Velvetleaf plant response rating [11, 19]
